Assay: compressibility factor (dimensionless); xn = mol fraction of the nth substance listed
Details: Gas, Burnett expansion method

CF [fluoromethane] + O=C=O
Details	compressibility factor
303.15 K, 126.9 kPa, x2 = 0.283	0.995
303.15 K, 139.3 kPa, x2 = 0.402	0.9955
303.15 K, 155.9 kPa, x2 = 0.59	0.9951
303.15 K, 174.7 kPa, x2 = 0.798	0.9946
303.15 K, 188.9 kPa, x2 = 0.283	0.9896
303.15 K, 207.3 kPa, x2 = 0.402	0.9896
303.15 K, 231.9 kPa, x2 = 0.59	0.9892
303.15 K, 259.9 kPa, x2 = 0.798	0.9886
303.15 K, 280.7 kPa, x2 = 0.283	0.9823
303.15 K, 308 kPa, x2 = 0.402	0.9821
303.15 K, 344.5 kPa, x2 = 0.59	0.9815
303.15 K, 386 kPa, x2 = 0.798	0.9807
303.15 K, 415.8 kPa, x2 = 0.283	0.9721
303.15 K, 456.1 kPa, x2 = 0.402	0.9715
303.15 K, 510 kPa, x2 = 0.59	0.9708
303.15 K, 571.5 kPa, x2 = 0.798	0.97
303.15 K, 613.1 kPa, x2 = 0.283	0.9576
303.15 K, 672.2 kPa, x2 = 0.402	0.9564
303.15 K, 751.4 kPa, x2 = 0.59	0.9555
303.15 K, 842 kPa, x2 = 0.798	0.9547
303.15 K, 897.8 kPa, x2 = 0.283	0.9368
303.15 K, 983.5 kPa, x2 = 0.402	0.9349
303.15 K, 1099.1 kPa, x2 = 0.59	0.9337
303.15 K, 1231.1 kPa, x2 = 0.798	0.9326
303.15 K, 1300.8 kPa, x2 = 0.283	0.9066
303.15 K, 1423.2 kPa, x2 = 0.402	0.9038
303.15 K, 1589.6 kPa, x2 = 0.59	0.9021
303.15 K, 1779.6 kPa, x2 = 0.798	0.9006
303.15 K, 1854.5 kPa, x2 = 0.283	0.8635
303.15 K, 2025.1 kPa, x2 = 0.402	0.8591
303.15 K, 2259.3 kPa, x2 = 0.59	0.8566
303.15 K, 2527 kPa, x2 = 0.798	0.8543
303.15 K, 2578.9 kPa, x2 = 0.283	0.8022
303.15 K, 2808.4 kPa, x2 = 0.402	0.7959
303.15 K, 3127.5 kPa, x2 = 0.59	0.7921
303.15 K, 3455.9 kPa, x2 = 0.283	0.7182
303.15 K, 3491.8 kPa, x2 = 0.798	0.7886
303.15 K, 3745.5 kPa, x2 = 0.402	0.7091
303.15 K, 4156.5 kPa, x2 = 0.59	0.7033
303.15 K, 4628.3 kPa, x2 = 0.798	0.6983
313.15 K, 128.9 kPa, x2 = 0.206	0.9928
313.15 K, 139.2 kPa, x2 = 0.778	1
313.15 K, 156.2 kPa, x2 = 0.593	0.9925
313.15 K, 175 kPa, x2 = 0.408	0.9921
313.15 K, 192.3 kPa, x2 = 0.206	0.9894
313.15 K, 207.3 kPa, x2 = 0.778	0.9946
313.15 K, 233 kPa, x2 = 0.593	0.989
313.15 K, 260.7 kPa, x2 = 0.408	0.9874
313.15 K, 286.2 kPa, x2 = 0.206	0.9837
313.15 K, 308.2 kPa, x2 = 0.778	0.9881
313.15 K, 346.7 kPa, x2 = 0.593	0.9829
313.15 K, 387.2 kPa, x2 = 0.408	0.9799
313.15 K, 424.5 kPa, x2 = 0.206	0.9746
313.15 K, 457.5 kPa, x2 = 0.778	0.9798
313.15 K, 514.3 kPa, x2 = 0.593	0.974
313.15 K, 573.2 kPa, x2 = 0.408	0.9689
313.15 K, 626.8 kPa, x2 = 0.206	0.9613
313.15 K, 676.8 kPa, x2 = 0.778	0.9683
313.15 K, 759.4 kPa, x2 = 0.593	0.9608
313.15 K, 843.8 kPa, x2 = 0.408	0.9529
313.15 K, 919.1 kPa, x2 = 0.206	0.9417
313.15 K, 996 kPa, x2 = 0.778	0.9519
313.15 K, 1113.9 kPa, x2 = 0.593	0.9415
313.15 K, 1231.8 kPa, x2 = 0.408	0.9293
313.15 K, 1334.2 kPa, x2 = 0.206	0.9132
313.15 K, 1453.8 kPa, x2 = 0.778	0.9282
313.15 K, 1617 kPa, x2 = 0.593	0.913
313.15 K, 1775.9 kPa, x2 = 0.408	0.895
313.15 K, 1907.6 kPa, x2 = 0.206	0.8722
313.15 K, 2096.6 kPa, x2 = 0.778	0.8943
313.15 K, 2311.9 kPa, x2 = 0.593	0.8721
313.15 K, 2512.5 kPa, x2 = 0.408	0.846
313.15 K, 2665.8 kPa, x2 = 0.206	0.8143
313.15 K, 2967.7 kPa, x2 = 0.778	0.8457
313.15 K, 3229.5 kPa, x2 = 0.593	0.8138
313.15 K, 3455.2 kPa, x2 = 0.408	0.7772
313.15 K, 3600.8 kPa, x2 = 0.206	0.7348
313.15 K, 4083.3 kPa, x2 = 0.778	0.7773
313.15 K, 4357.3 kPa, x2 = 0.593	0.7335
313.15 K, 4556.4 kPa, x2 = 0.408	0.6847
313.15 K, 4622.8 kPa, x2 = 0.206	0.6302
313.15 K, 5382.3 kPa, x2 = 0.778	0.6845
313.15 K, 5581 kPa, x2 = 0.593	0.6277
313.15 K, 5645.6 kPa, x2 = 0.408	0.5668
323.15 K, 133.2 kPa, x2 = 0.378	0.9948
323.15 K, 137 kPa, x2 = 0.791	0.995
323.15 K, 142.6 kPa, x2 = 0.619	0.9967
323.15 K, 156.6 kPa, x2 = 0.189	0.9918
323.15 K, 198.7 kPa, x2 = 0.378	0.9914
323.15 K, 204.4 kPa, x2 = 0.791	0.9921
323.15 K, 212.6 kPa, x2 = 0.619	0.9926
323.15 K, 233.4 kPa, x2 = 0.189	0.9875
323.15 K, 295.9 kPa, x2 = 0.378	0.986
323.15 K, 304.7 kPa, x2 = 0.791	0.9877
323.15 K, 316.4 kPa, x2 = 0.619	0.9871
323.15 K, 347.1 kPa, x2 = 0.189	0.9809
323.15 K, 439.4 kPa, x2 = 0.378	0.9783
323.15 K, 453 kPa, x2 = 0.791	0.9812
323.15 K, 469.9 kPa, x2 = 0.619	0.9793
323.15 K, 514.3 kPa, x2 = 0.189	0.971
323.15 K, 650.1 kPa, x2 = 0.378	0.967
323.15 K, 671.5 kPa, x2 = 0.791	0.9715
323.15 K, 695.4 kPa, x2 = 0.619	0.9682
323.15 K, 758.3 kPa, x2 = 0.189	0.9564
323.15 K, 956.3 kPa, x2 = 0.378	0.9502
323.15 K, 990.6 kPa, x2 = 0.791	0.9574

Reference: the NIST ThermoML archive (doi:10.1021/je025630q)
